Patent US20260022096A1, “NOVEL SULFONAMIDES AND THEIR USE AS NEUROPROTECTIVE AND/OR NEURORESTORATIVE AGENTS” (GENECODE, priority 2022, published 2026)

These molecules were tested against T1, GFRα1-RET (Homo sapiens, UniProt P56159) (assay: Elk1 reporter-gene (luciferase) assay in cells expressing GFRα1-RET). Details: MG87 murine fibroblasts stably transfected with PathDetect Elk-1, GFRα1 and RET, 6 concentrations, agonist/activator activity.
T1 construct: expressed in transfected cells; host or cells: MG87 murine fibroblasts, stably transfected
T1 sequence (P56159 25-429 limits assumed): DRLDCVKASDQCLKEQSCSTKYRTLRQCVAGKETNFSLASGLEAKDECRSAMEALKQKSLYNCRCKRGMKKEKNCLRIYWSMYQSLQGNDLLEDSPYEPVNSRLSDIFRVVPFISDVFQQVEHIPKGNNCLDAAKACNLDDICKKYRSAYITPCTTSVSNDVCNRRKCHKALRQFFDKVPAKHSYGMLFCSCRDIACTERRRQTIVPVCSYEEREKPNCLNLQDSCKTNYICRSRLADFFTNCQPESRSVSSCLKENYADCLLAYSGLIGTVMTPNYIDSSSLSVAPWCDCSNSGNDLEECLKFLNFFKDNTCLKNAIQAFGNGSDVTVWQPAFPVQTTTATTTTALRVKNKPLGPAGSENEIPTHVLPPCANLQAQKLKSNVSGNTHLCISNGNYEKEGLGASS
Format: cell-based
Description: For ECso determination, a dose-response test was performed using 6 concentrations of each tested compound. Dose-response curves were fitted using the sigmoidal dose-response (variable slope) analysis in GraphPad Prism program (Graph Pad Inc) and ECso of agonist/activator activity was calculated. Dose-response experiments were all performed in duplicate, two times independently.
`CC1(C)COCCN1S(=O)(=O)c1cc(Cl)c(O)c(N2[C@@H]3CC[C@H]2CN(C(=O)c2ccc(F)cc2Cl)C3)c1` [compound 131, [(1S,5R)-8-[3-chloro-5-(3,3-dimethylmorpholin-4-yl)sulfonyl-2-hydroxy-phenyl]-3,8-diazabicyclo[3.2.1]octan-3-yl]-(2-chloro-4-fluoro-phenyl)methanone] gave an EC50 of under 1000 nM.
For `Cc1c(Cl)cc(S(=O)(=O)N(C)C(C)(C)C)cc1N1[C@@H]2CC[C@H]1CN(C(=O)c1ccc(F)cc1Cl)C2` [compound 132, N-tert-butyl-3-chloro-5-[(1S,5R)-3-(2-chloro-4-fluoro-benzoyl)-3,8-diazabicyclo[3.2.1]octan-8-yl]-N,4-dimethyl-benzenesulfonamide], the EC50 was under 1000 nM.
For `CN(C(C)(C)C)S(=O)(=O)c1cc(Cl)c(Cl)c(N2[C@@H]3CC[C@H]2CN(C(=O)c2ccc(F)cc2Cl)C3)c1` [compound 133, N-tert-butyl-3,4-dichloro-5-[(1S,5R)-3-(2-chloro-4-fluoro-benzoyl)-3,8-diazabicyclo[3.2.1]octan-8-yl]-N-methyl-benzenesulfonamide], the EC50 was under 1000 nM.
`CN(C(C)(C)C)S(=O)(=O)c1cc(Cl)c(OCCO)c(N2[C@@H]3CC[C@H]2CN(C(=O)c2ccc(F)cc2Cl)C3)c1` [compound 134] was tested, and the EC50 was under 1000 nM.
`COCCOc1c(Cl)cc(S(=O)(=O)N(C)C(C)(C)C)cc1N1[C@@H]2CC[C@H]1CN(C(=O)c1ccc(F)cc1Cl)C2` [compound 135, N-tert-butyl-3-chloro-5-[(1S,5R)-3-(2-chloro-4-fluoro-benzoyl)-3,8-diazabicyclo[3.2.1]octan-8-yl]-4-(2-methoxyethoxy)-N-methyl-benzenesulfonamide] was tested, and the EC50 was under 1000 nM.
In the case of `CN(C(C)(C)C)S(=O)(=O)c1cc(Cl)c(OCc2ccccc2)c(N2[C@@H]3CC[C@H]2CN(C(=O)c2ccc(F)cc2Cl)C3)c1` [compound 136, 4-benzyloxy-N-tert-butyl-3-chloro-5-[(1S,5R)-3-(2-chloro-4-fluoro-benzoyl)-3,8-diazabicyclo[3.2.1]octan-8-yl]-N-methyl-benzenesulfonamide], the EC50 is reported as under 1000 nM.
Molecule `CN(C(C)(C)C)S(=O)(=O)c1cc(Cl)c(OCc2cccnc2)c(N2[C@@H]3CC[C@H]2CN(C(=O)c2ccc(F)cc2Cl)C3)c1` [compound 137] has an EC50 of under 1000 nM.
With `CN(C(C)(C)C)S(=O)(=O)c1cc(Cl)c(OCc2ccncc2)c(N2[C@@H]3CC[C@H]2CN(C(=O)c2ccc(F)cc2Cl)C3)c1` [compound 138, N-tert-butyl-3-chloro-5-[(1S,5R)-3-(2-chloro-4-fluoro-benzoyl)-3,8-diazabicyclo[3.2.1]octan-8-yl]-N-methyl-4-(4-pyridylmethoxy) benzenesulfonamide] the EC50 was under 1000 nM.
In the case of `CC(C)(C)NS(=O)(=O)c1cc(Cl)c(O)c(N2[C@@H]3CC[C@H]2CN(C(=O)c2ccc(F)cc2Cl)C3)c1F` [compound 139, N-tert-butyl-5-chloro-3-[(1S,5R)-3-(2-chloro-4-fluoro-benzoyl)-3,8-diazabicyclo[3.2.1]octan-8-yl]-2-fluoro-4-hydroxy-benzenesulfonamide], the EC50 is reported as under 1000 nM.
